Assay results as given in PubChem BioAssay AID212 (DTP/NCI, 2004).
Where “and” joins values, the source holds several entries; their conditions need not be identical. Identical values can stand only once. Results filed as inconclusive are left out.

Tested on: BDF1 mice, colon carcinoma 38 sc, T/C %
Test: NCI In Vivo Anticancer Drug Screen. Data for tumor model Colon Carcinoma 38 (subcutaneous) in B6D2F1 (BDF1) mice
Conditions: endpoint: median tumor weight (est.), higher = larger tumour
In short: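 Ratio of survival or tumor size, compound-treated animals relative to vehicle controls, in tumor-bearing mice.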

[1] = dose: 2.0 mg/kg/injection, schedule: Q07DX002 (ip), vehicle: Klucel (hydroxypropylcellulose) (HPC)
[2] = dose: 4.0 mg/kg/injection, schedule: Q07DX002 (ip), vehicle: Klucel (hydroxypropylcellulose) (HPC)

With `N[C@@H](Cc1ccc(N(CCCl)CCCl)cc1)C(=O)O` the T/C [1] was 81 % of control, the T/C (dose: 2.0 mg/kg/injection, schedule: Q07DX003 (ip), vehicle: saline) was 106 % of control and the T/C (dose: 2.5 mg/kg/injection, schedule: Q07DX003 (ip), vehicle: saline with Tween-80) was 51 % of control. The T/C (dose: 3.75 mg/kg/injection, schedule: Q07DX002 (ip), vehicle: Klucel (hydroxypropylcellulose) (HPC)) was 54 % of control and 61 % of control, the T/C [2] was 107 % of control and the T/C (dose: 5.0 mg/kg/injection, schedule: Q07DX003 (ip), vehicle: saline with Tween-80) was 44 % of control. The T/C (dose: 7.5 mg/kg/injection, schedule: Q07DX002 (ip), vehicle: Klucel (hydroxypropylcellulose) (HPC)) was 33 % of control and 37 % of control, the T/C (dose: 15.0 mg/kg/injection, schedule: Q07DX002 (ip), vehicle: Klucel (hydroxypropylcellulose) (HPC)) was 16 % of control and the T/C (dose: 16.0 mg/kg/injection, schedule: Q07DX002 (ip), vehicle: saline) was 8 % of control (2×) and 11 % of control.

For `Nc1ncnc2c1ncn2C1C=C(CO)C(O)C1O` (stereo unspecified), the T/C (dose: 1.0 mg/kg/injection, schedule: Q07DX002 (ip), vehicle: saline) was 74 % of control and 84 % of control, the T/C (dose: 2.0 mg/kg/injection, schedule: Q07DX002 (ip), vehicle: saline) was 93 % of control and the T/C (dose: 8.0 mg/kg/injection, schedule: Q07DX002 (ip), vehicle: saline) was 107 % of control.

In the case of `NCCOCC(N)C(=O)O` (stereo unspecified), the T/C (dose: 125.0 mg/kg/injection, schedule: Q07DX002 (ip), vehicle: saline) is reported as 112 % of control, the T/C (dose: 250.0 mg/kg/injection, schedule: Q07DX002 (ip), vehicle: saline) is reported as 84 % of control and the T/C (dose: 500.0 mg/kg/injection, schedule: Q07DX002 (ip), vehicle: saline) is reported as 107 % of control. The T/C (dose: 1000.0 mg/kg/injection, schedule: Q07DX002 (ip), vehicle: saline) was 107 % of control.

`CC1(C)CC23C4COC(=O)C2CCC1C3CC4=O` (stereo unspecified) was tested, and the T/C (dose: 6.25 mg/kg/injection, schedule: Q07DX002 (ip), vehicle: DMSO) was 116 % of control and 101 % of control, the T/C (dose: 25.0 mg/kg/injection, schedule: Q07DX002 (ip), vehicle: DMSO) was 81 % of control and 92 % of control and the T/C (dose: 50.0 mg/kg/injection, schedule: Q07DX002 (ip), vehicle: DMSO) was 121 % of control and 105 % of control. The T/C (dose: 200.0 mg/kg/injection, schedule: Q07DX002 (ip), vehicle: DMSO) was 103 % of control.

`CC1OC1C(=O)C1(O)C(C)C(O)C23OC2(C(O)c2c(O)cccc2C3=O)C1O` (stereo unspecified) was tested, and the T/C [1] was 95 % of control and 101 % of control, the T/C [2] was 77 % of control and 91 % of control and the T/C (dose: 8.0 mg/kg/injection, schedule: Q07DX002 (ip), vehicle: Klucel (hydroxypropylcellulose) (HPC)) was 95 % of control and 102 % of control. For the same compound, the T/C (dose: 32.0 mg/kg/injection, schedule: Q07DX002 (ip), vehicle: Klucel (hydroxypropylcellulose) (HPC)) was 98 % of control and the T/C (dose: 64.0 mg/kg/injection, schedule: Q07DX002 (ip), vehicle: Klucel (hydroxypropylcellulose) (HPC)) was 124 % of control.

With `CC1=C[S+](c2ccccc2)c2cccc3cc4ccccc4c1c23` (stereo unspecified) the T/C (dose: 0.5 mg/kg/injection, schedule: Q07DX002 (ip), vehicle: saline with Tween-80) was 109 % of control, the T/C (dose: 1.0 mg/kg/injection, schedule: Q07DX002 (ip), vehicle: saline with Tween-80) was 162 % of control and the T/C (dose: 2.0 mg/kg/injection, schedule: Q07DX002 (ip), vehicle: saline with Tween-80) was 151 % of control. The T/C (dose: 4.0 mg/kg/injection, schedule: Q07DX002 (ip), vehicle: saline with Tween-80) was 114 % of control.

In the case of `c1ccc([C@H]2CN3CCSC3=N2)cc1`, the T/C (dose: 10.0 mg/kg/injection, schedule: Q07DX003 (ip), vehicle: saline) is reported as 77 % of control and the T/C (dose: 40.0 mg/kg/injection, schedule: Q07DX003 (ip), vehicle: saline) is reported as 45 % of control.

In the case of `COc1ccc(C(N)=O)cc1N=NN(C)C`, the T/C (dose: 6.25 mg/kg/injection, schedule: Q07DX003 (ip), vehicle: Klucel (hydroxypropylcellulose) (HPC)) is reported as 97 % of control, the T/C (dose: 12.5 mg/kg/injection, schedule: Q07DX003 (ip), vehicle: Klucel (hydroxypropylcellulose) (HPC)) is reported as 111 % of control and the T/C (dose: 25.0 mg/kg/injection, schedule: Q07DX003 (ip), vehicle: Klucel (hydroxypropylcellulose) (HPC)) is reported as 89 % of control. For the same compound, the T/C (dose: 50.0 mg/kg/injection, schedule: Q07DX003 (ip), vehicle: Klucel (hydroxypropylcellulose) (HPC)) was 66 % of control and the T/C (dose: 100.0 mg/kg/injection, schedule: Q07DX003 (ip), vehicle: Klucel (hydroxypropylcellulose) (HPC)) was 15 % of control.
